# Measurements published in BindingDB's records for doi:10.7270/Q2H993J6 (Pcmd, 2008).
# Where a SMILES comes first, the peptide text is derived from it. The star is where a group is joined. Cbz = O=C(OCc1ccccc1)*
# Biological target: Coagulation factor XI (Homo sapiens, UniProt P03951)
# Assay: factor XIa inhibitor concentration-response – biochemical, hits from 1536-well screen, dose response (AID 846)
# Conditions: pH 7.4; 23 °C
# Chain of Coagulation factor XI (P03951 19-387 limits assumed): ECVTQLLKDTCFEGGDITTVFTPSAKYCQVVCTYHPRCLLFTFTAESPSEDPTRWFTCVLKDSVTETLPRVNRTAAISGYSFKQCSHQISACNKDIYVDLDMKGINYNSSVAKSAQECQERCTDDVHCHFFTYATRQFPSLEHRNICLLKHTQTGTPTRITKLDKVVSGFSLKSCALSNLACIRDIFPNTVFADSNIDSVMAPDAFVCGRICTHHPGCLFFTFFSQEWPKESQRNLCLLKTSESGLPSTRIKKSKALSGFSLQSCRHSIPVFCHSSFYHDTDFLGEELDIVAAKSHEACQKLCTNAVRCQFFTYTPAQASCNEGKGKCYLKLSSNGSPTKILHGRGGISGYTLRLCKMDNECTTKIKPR
# Chain of Coagulation factor XI (P03951 388-625 limits assumed): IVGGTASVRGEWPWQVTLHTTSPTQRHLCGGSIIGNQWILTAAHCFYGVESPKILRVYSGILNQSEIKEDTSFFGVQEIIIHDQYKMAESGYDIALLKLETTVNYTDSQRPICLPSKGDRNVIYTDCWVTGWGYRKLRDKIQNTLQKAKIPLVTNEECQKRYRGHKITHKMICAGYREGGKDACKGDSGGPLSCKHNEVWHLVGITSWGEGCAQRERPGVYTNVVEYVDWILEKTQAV
row,SMILES,IC50 [µM]
1,"O=C1c2ccccc2C(=O)N1OS(=O)(=O)c1ccccc1 [Benzenesulfonic acid 1,3-dioxo-1,3-dihydro-isoindol-2-yl ester]",1.4
2,COc1ccc(Cl)cc1NC(=O)Nc1cn(C)nc1C [SMR000458292],> 50
3,"Cc1ccc2c(CN3CCN(Cc4ccc5c(c4)OCO5)CC3)cc(=O)oc2c1C [4-[[4-(1,3-benzodioxol-5-ylmethyl)-1-piperazinyl]methyl]-7,8-dimethyl-1-benzopyran-2-one]",> 50
4,CN1C(=O)C(=NOC(=O)c2ccccc2)c2ccccc21 [MLS000556117],25.9
5,"CCOc1ccc(NC(=O)CN2C(=O)/C(=C3\SC(=S)N(C4CCS(=O)(=O)C4)C3=O)c3ccccc32)cc1 (configuration not stated) [2-[(3Z)-3-[3-[1,1-bis(oxidanylidene)thiolan-3-yl]-4-oxidanylidene-2-sulfanylidene-1,3-thiazolidin-5-ylidene]-2-oxidanylidene-indol-1-yl]-N-(4-ethoxyphenyl)ethanamide;ethanoic acid]",> 50
6,CC(Cc1ccccc1)=NNC(=O)CNC(=O)C=Cc1ccccc1 [(Z)-N-[2-oxo-2-[2-(1-phenylpropan-2-ylidene)hydrazinyl]ethyl]-3-phenyl-2-propenamide],> 50
7,COc1ccc(N2C(=O)C(Cl)=C(N3CCCC(C)C3)C2=O)cc1 (configuration not stated) [SMR000142424],> 50
8,Cn1cccc1C(=O)Nc1nc(-c2ccccn2)cs1 [SMR000064459],21.6
9,Cc1ccc(C(=O)NCC(=O)OC(C)C(=O)Nc2ccc(N3CCOCC3)cc2)s1 (configuration not stated) [[1-(4-morpholin-4-ylanilino)-1-oxopropan-2-yl] 2-[(5-methylthiophene-2-carbonyl)amino]acetate],> 50
10,COc1cc([N+](=O)[O-])cc2sc(NC(C)=O)nc12 [MLS000708454],> 50
11,CCCn1cc(C(=O)OCC)c(=O)c2cc(F)c(F)cc21 [SMR000427606],> 50
12,O=C(Nc1ccc2c(c1)oc1ccccc12)N1CCOCC1 [Morpholine-4-carboxylic acid dibenzofuran-3-ylamide],> 50
13,NC[C@H](O)c1ccc(O)cc1 [SMR000058358],> 50
14,"CN(Cc1ccccc1)c1nc2c(c(=O)[nH]c(=O)n2C)n1CCCSc1ncccn1 [3-methyl-8-[methyl-(phenylmethyl)amino]-7-(3-pyrimidin-2-ylsulfanylpropyl)purine-2,6-dione]",> 50
15,Cc1ccc(C(=O)NNC(=S)NC(=O)COc2ccccc2)cc1 [N-[[(4-methylbenzoyl)amino]carbamothioyl]-2-phenoxyacetamide],3
16,CC(=O)c1ccc(NC(=O)C(Cl)=Cc2ccccc2)cc1 [(Z)-N-(4-acetylphenyl)-2-chloro-3-phenyl-2-propenamide],> 50
17,O=C(Nc1cc([N+](=O)[O-])ccc1N1CCOCC1)c1ccco1 [N-(2-morpholin-4-yl-5-nitro-phenyl)furan-2-carboxamide],> 50
18,CC(C)CNC(=O)Nc1ccc(F)c(Cl)c1 [MLS000679438],> 50
19,C=C(C)CNC(=S)Nc1cccc(N)n1,> 50
20,CCOC(=O)c1sc(NC(=O)CSC(=S)N2CCN(C)CC2)nc1C [MLS000332299],> 50
21,"CCCNC(=O)C1CC(c2ccc(C(F)(F)F)cc2)=NO1 (configuration not stated) [N-propyl-3-[4-(trifluoromethyl)phenyl]-4,5-dihydro-1,2-oxazole-5-carboxamide]",14.3

row,SMILES,IC50 [µM]
1,"CCc1cc2c(SCC(=O)N(C)C3CCS(=O)(=O)C3)ncnc2s1 (configuration not stated) [N-(1,1-dioxothiolan-3-yl)-2-(6-ethylthieno[2,3-d]pyrimidin-4-yl)sulfanyl-N-methylacetamide]",> 50
2,"CCSc1nnc(NC(=O)[C@H](C)N2C(=O)C3CC=CCC3C2=O)s1 (stereo partly drawn) [(2S)-2-(1,3-dioxo-3a,4,7,7a-tetrahydroisoindol-2-yl)-N-[5-(ethylthio)-1,3,4-thiadiazol-2-yl]propanamide]",> 50
3,CS(=O)(=O)c1ccc(Cl)c(NC(=O)COC(=O)CNC(=O)c2ccccc2)c1 [2-benzamidoacetic acid [2-(2-chloro-5-methylsulfonylanilino)-2-oxoethyl] ester],> 50
4,COCCNCC(=O)Nc1nc(C)cs1 [SMR000287473],> 50
5,"Cc1cc(NS(=O)(=O)c2ccc(N3C(=O)C4C5C=CC(C5)C4C3=O)cc2)nc(C)n1 (configuration not stated) [N-(2,6-dimethyl-4-pyrimidinyl)-4-(3,5-dioxo-4-azatricyclo[5.2.1.0~2,6~]dec-8-en-4-yl)benzenesulfonamide]",> 50
6,CC(C)C(NC(=O)C(Cc1ccccc1)NC(=O)OCc1ccccc1)C(=O)O (stereo not drawn) [3-methyl-2-[[1-oxo-3-phenyl-2-(phenylmethoxycarbonylamino)propyl]amino]butanoic acid] (Cbz-Phe-Val-OH; configuration not given here),> 50
7,Oc1cc(Sc2ccc(Cl)cc2)c(O)n1-c1ccc2c(c1)OCCO2,> 50
8,"Cc1ccc(NC2=NC3(CCCCC3)N=C(N)N2)c(C)c1 [N4-(2,4-dimethylphenyl)-1,3,5-triazaspiro[5.5]undeca-1,4-diene-2,4-diamine]",> 50
9,"Oc1ccc(C=NN2CCN(C3c4ccccc4-c4ccccc43)CC2)c(O)c1 [4-({[4-(9H-fluoren-9-yl)-1-piperazinyl]imino}methyl)-1,3-benzenediol]",> 50
10,O=C1NN(c2ccccc2)C(=O)/C1=C\c1cccc(OC(=O)c2cccs2)c1 [MLS000534153],> 50
11,"N#CCCC1CCCC=C1N(Cc1ccccc1)C(=O)C(Cl)Cl (configuration not stated) [2,2-bis(chloranyl)-N-[6-(2-cyanoethyl)cyclohexen-1-yl]-N-(phenylmethyl)ethanamide]",> 50
12,"Cc1ccc(NS(=O)(=O)c2ccc(C(=O)OCC(=O)Nc3cc(C)on3)cc2)cc1 [[2-[(5-methyl-1,2-oxazol-3-yl)amino]-2-oxoethyl] 4-[(4-methylphenyl)sulfamoyl]benzoate]",> 50
13,Cc1cccc(NC(=O)c2cc(-n3c(O)ccc3O)ccc2Cl)n1,> 50
14,O=C(COC(=O)c1cc(=O)c2ccccc2o1)NC1CCCCC1 [[2-(cyclohexylamino)-2-oxidanylidene-ethyl] 4-oxidanylidenechromene-2-carboxylate],> 50
15,"Cc1sc2c(c1C)C(=O)NC(c1cccc(O)c1)N2 (configuration not stated) [2-(3-hydroxyphenyl)-5,6-dimethyl-2,3-dihydrothieno[2,3-d]pyrimidin-4(1H)-one]",> 50
16,CCNc1cc(N2CCNCC2)ccc1[N+](=O)[O-],> 50
17,"CCc1cc(-c2n[nH]cc2-c2nc3ccccc3n2C)c(O)cc1O [4-Ethyl-6-[4-(1-methyl-1H-benzoimidazol-2-yl)-1H-pyrazol-3-yl]-benzene-1,3-diol]",> 50
18,"CCN(C(=O)COC(=O)/C=C/c1c(C)nn(-c2ccccc2)c1C)C1CCS(=O)(=O)C1 (configuration not stated) [(E)-3-(3,5-dimethyl-1-phenyl-4-pyrazolyl)-2-propenoic acid [2-[(1,1-dioxo-3-thiolanyl)-ethylamino]-2-oxoethyl] ester]",> 50
19,"Cc1ccc(C(=O)n2nc(-c3cccnc3)nc2N)cc1 [1-(4-methylbenzoyl)-3-(3-pyridinyl)-1H-1,2,4-triazol-5-amine]",> 50
20,"CCN1CCN(CC(=O)Nc2cc(C)on2)CC1 [2-(4-ethylpiperazin-1-yl)-N-(5-methyl-1,2-oxazol-3-yl)acetamide;oxalic acid]",> 50
21,O=C(O)c1ccc(N=C(NS(=O)(=O)c2ccc(Cl)cc2)c2ccccc2)cc1 [4-({[(E)-4-Chloro-benzenesulfonylimino]-phenyl-methyl}-amino)-benzoic acid],> 50

row,SMILES,IC50 [µM]
1,"Oc1cc(N2CCC(c3nc4ccccc4o3)CC2)c(O)n1-c1ccc(Cl)c(C(F)(F)F)c1 [3-[4-(1,3-benzoxazol-2-yl)piperidin-1-yl]-1-[4-chloranyl-3-(trifluoromethyl)phenyl]pyrrolidine-2,5-dione]",> 50
2,O=C(NNC1=NCCCCC1)Nc1cccc(Cl)c1,> 50
3,NS(=O)(=O)c1ccc(Cl)cc1[N+](=O)[O-],> 50
4,O=C(CSc1ncccn1)NN=Cc1cccc(OC2CSC2)c1,> 50
5,O=C(Nc1nc(-c2ccccc2)cs1)c1ccc(S(=O)(=O)N2CCc3ccccc32)cc1 [SMR000235796],> 50
6,Nn1c(C2CCCCC2)nc2ccccc2c1=O [3-azanyl-2-cyclohexyl-quinazolin-4-one],> 50
7,"Cn1cccc1/C=C1\C(=O)NC(=O)N(Cc2ccccc2Cl)C1=O [(5E)-1-[(2-chlorophenyl)methyl]-5-[(1-methylpyrrol-2-yl)methylidene]-1,3-diazinane-2,4,6-trione]",> 50
8,C=CCNc1nc(NC(C)(C)CO)nc(OC)n1 [SMR000117555],> 50
9,"COc1cc(C(=O)NC(=S)N(C)Cc2ccccc2)cc(OC)c1OC [N-[benzyl(methyl)carbamothioyl]-3,4,5-trimethoxybenzamide]",> 50
10,CCOC(=O)COc1cc(O)c2c(=O)cc(-c3ccccc3)oc2c1 [2-[(5-hydroxy-4-oxo-2-phenyl-1-benzopyran-7-yl)oxy]acetic acid ethyl ester],> 50
11,"Cc1ccc(C)c(S(=O)(=O)ON2C(=O)c3ccccc3C2=O)c1 [2,5-dimethylbenzenesulfonic acid (1,3-dioxo-2-isoindolyl) ester]",0.762
12,Cc1nnc(SCCn2c(Br)nc3c2c(=O)[nH]c(=O)n3C)s1,> 50
13,"O=C(NCc1ccco1)C1CC(c2ccccc2C(F)(F)F)=NO1 (configuration not stated) [N-(2-furanylmethyl)-3-[2-(trifluoromethyl)phenyl]-4,5-dihydroisoxazole-5-carboxamide]",> 50
14,"Oc1ccc(CN=Nc2nc(-c3cccnc3)nc3ccccc23)c(O)c1 [(4E)-3-hydroxy-4-[[2-(2-pyridin-3-ylquinazolin-4-yl)hydrazinyl]methylidene]cyclohexa-2,5-dien-1-one]",> 50
15,O=C(Cn1[nH]c(=O)c2ccccc2c1=O)Nc1cccc(S(=O)(=O)N2CCCCCC2)c1 [SMR000369234],> 50
16,COCC(=O)Nc1ccccc1-c1ccccc1 [N-2-biphenylyl-2-methoxyacetamide],> 50
17,Cc1cccc(CN2CCN(CC(=O)N3CCCC3)C2=O)c1 [SMR000130591],> 50
18,CCOC(=O)CSc1nnc(-c2ccccc2)o1 [MLS000526656],> 50
19,Cc1ccc(S(=O)(=O)ON2C(=O)c3ccccc3C2=O)c(C)c1 [MLS000579570],1.08
20,COc1cccc(C(=O)OCCN2CCOCC2)c1,> 50
